Where two headings read alike, the source gives them in different places.
Key:
[1] = biological target: T1, EGFR[T790M/C797S/d746-750] (Homo sapiens, UniProt P00533, C797S/DEL746-750/T790M); assay: Inhibition of EGFR[T790M/C797S/d746-750] biochemical enzymatic activity (HTRF); conditions: EGFR T790M-C797S-Del19, 1 mM ATP, 1 h, room temperature, read-out: IC50 (nM) @T790M - C797S - Del19
T1 construct: purchased Carna Bio
In short: (§1)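 HTRF kinase assay: each EGFR enzyme phosphorylated 1 μM biotinylated TK substrate with 1 mM ATP in buffer containing 5 mM MgCl2, 1 mM MnCl2, 0.01% CHAPS, 1 mM DTT, 0.5% DMSO. After 1 h at room temperature, EDTA detection mix stopped the reaction. IC50 came from a four-parameter logistic fit of the 665/615 nm ratio.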

EGFR L858R = biological target: T2, EGFR L858R (Homo sapiens, UniProt P00533, L858R); assay: Inhibition of EGFR L858R biochemical enzymatic activity (HTRF); conditions: 1 mM ATP, 1 h, room temperature, read-out: IC50 (nM) @L858R
T2 construct: purchased Carna Bio
In short: as §1

EGFR (d746-750 C797S) = biological target: T3, EGFR (d746-750 C797S) (Homo sapiens, UniProt P00533, C797S/DEL746-750); assay: Inhibition of EGFR (d746-750 C797S) biochemical enzymatic activity (HTRF); conditions: EGFR Del19-C797S, 1 mM ATP, 1 h, room temperature, read-out: IC50 (nM) @Del19-C797S
T3 construct: purchased signalchem
In short: as §1

[2] = system: Ba/F3 cells expressing EGFR mutations; assay: Cell proliferation assay, Ba/F3 cells expressing EGFR mutations (CellTiter-Glo, 72 hours); format: cell-based; conditions: CellTiter-Glo
In short: (§2)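 Ba/F3 cells (5000/well) and PC-9 cells (500/well, RPMI1640 with 10% FBS) were plated overnight and then dosed with a compound concentration series. Viable cells were read at day 0 (G0) and after treatment (G3). GI50 came from curve fits of G0-corrected proliferation relative to DMSO.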

A-431 = assay: Cell proliferation GI50, A-431 cells (Table 6); format: cell-based
PC-9 = assay: Cell proliferation assay, PC-9 cells (CellTiter-Glo, 72 hours); format: cell-based; conditions: PC9 cells, CellTiter-Glo, read-out: PC9 GI50
In short: as §2

EGFR (C797S L858R) = biological target: T4, EGFR (C797S L858R) (Homo sapiens, UniProt P00533, C797S/L858R); assay: Inhibition of EGFR (C797S L858R) biochemical enzymatic activity (HTRF); conditions: EGFR L858-C797S, 1 mM ATP, 1 h, room temperature, read-out: IC50 (nM) @L858-C797S
T4 construct: purchased signalchem
In short: as §1

EGFR Exon19Del = biological target: T5, EGFR Exon19Del (Homo sapiens, UniProt P00533, DEL746-750); assay: Inhibition of EGFR Exon19Del biochemical enzymatic activity (HTRF); conditions: EGFR Del19, 1 mM ATP, 1 h, room temperature, read-out: IC50 @Del19
T5 construct: purchased Carna Bio
In short: as §1

EGFR Exon19Del/T790M = biological target: T6, EGFR Exon19Del/T790M (Homo sapiens, UniProt P00533, DEL746-750/T790M); assay: Inhibition of EGFR Exon19Del/T790M biochemical enzymatic activity (HTRF); conditions: EGFR Del19-T790M, 1 mM ATP, 1 h, room temperature, read-out: IC50 (nM) @Del19-T790M
T6 construct: purchased Carna Bio
In short: as §1

EGFR L858R/T790M = biological target: T7, EGFR L858R/T790M (Homo sapiens, UniProt P00533, L858R/T790M); assay: Inhibition of EGFR L858R/T790M biochemical enzymatic activity (HTRF); conditions: EGFR L858R-T790M, 1 mM ATP, 1 h, room temperature, read-out: IC50 (nM) @L858R-T790M
T7 construct: purchased Carna Bio
In short: as §1

EGFR wild type = biological target: T8, EGFR wild type (Homo sapiens, UniProt P00533); assay: Inhibition of EGFR wild type biochemical enzymatic activity (HTRF); conditions: EGFR WT, 1 mM ATP, 1 h, room temperature, read-out: IC50 (nM) @WT
T8 construct: purchased Carna Bio
In short: as §1

EGFR[T790M/C797S/L858R] = biological target: T9, EGFR[T790M/C797S/L858R] (Homo sapiens, UniProt P00533, C797S/L858R/T790M); assay: Inhibition of EGFR[T790M/C797S/L858R] biochemical enzymatic activity (HTRF); conditions: EGFR T790M-C797S-L858R, 1 mM ATP, 1 h, room temperature, read-out: IC50 (nM) @T790M- C797S - L858R
T9 construct: purchased Carna Bio
In short: as §1

[3] = BaF3 cells, EGFR DEL19-C797S, read-out: DEL19-C797S/BaF3 GI50
[4] = BaF3 cells, EGFR DEL19-T790-C797S, read-out: DEL19-T790-C797S/BaF3 GI50
[5] = BaF3 cells, EGFR L858R, read-out: L858R/BaF3 GI50
[6] = BaF3 cells, EGFR L858R-C797S, read-out: L858R-C797S/BaF3 GI50
[7] = BaF3 cells, EGFR L858R-T790-C797S, read-out: L858R-T790-C797S/BaF3 GI50
[8] = BaF3 cells, EGFR L858R-T790M, read-out: L858R-T790M/BaF3 GI50
[9] = EGFR DEL19-T790M, read-out: DEL19-T790M GI50
[10] = Homo sapiens, A-431, A-431 cells
[11] = Mus musculus, BaF3, 72 h, BaF3 cells, EGFR DEL19-C797S, read-out: DEL19-C797S/BaF3 GI50
[12] = Mus musculus, BaF3, 72 h, BaF3 cells, EGFR DEL19-T790-C797S, read-out: DEL19-T790-C797S/BaF3 GI50
[13] = Mus musculus, BaF3, 72 h, BaF3 cells, EGFR L858R, read-out: L858R/BaF3 GI50
[14] = Mus musculus, BaF3, 72 h, BaF3 cells, EGFR L858R-C797S, read-out: L858R-C797S/BaF3 GI50
[15] = Mus musculus, BaF3, 72 h, BaF3 cells, EGFR L858R-T790-C797S, read-out: L858R-T790-C797S/BaF3 GI50
[16] = Mus musculus, BaF3, 72 h, BaF3 cells, EGFR L858R-T790M, read-out: L858R-T790M/BaF3 GI50
[17] = Mus musculus, BaF3, 72 h, EGFR DEL19-T790M, read-out: DEL19-T790M GI50

T9 sequence (P00533 25-1210 T790M/C797S/L858R): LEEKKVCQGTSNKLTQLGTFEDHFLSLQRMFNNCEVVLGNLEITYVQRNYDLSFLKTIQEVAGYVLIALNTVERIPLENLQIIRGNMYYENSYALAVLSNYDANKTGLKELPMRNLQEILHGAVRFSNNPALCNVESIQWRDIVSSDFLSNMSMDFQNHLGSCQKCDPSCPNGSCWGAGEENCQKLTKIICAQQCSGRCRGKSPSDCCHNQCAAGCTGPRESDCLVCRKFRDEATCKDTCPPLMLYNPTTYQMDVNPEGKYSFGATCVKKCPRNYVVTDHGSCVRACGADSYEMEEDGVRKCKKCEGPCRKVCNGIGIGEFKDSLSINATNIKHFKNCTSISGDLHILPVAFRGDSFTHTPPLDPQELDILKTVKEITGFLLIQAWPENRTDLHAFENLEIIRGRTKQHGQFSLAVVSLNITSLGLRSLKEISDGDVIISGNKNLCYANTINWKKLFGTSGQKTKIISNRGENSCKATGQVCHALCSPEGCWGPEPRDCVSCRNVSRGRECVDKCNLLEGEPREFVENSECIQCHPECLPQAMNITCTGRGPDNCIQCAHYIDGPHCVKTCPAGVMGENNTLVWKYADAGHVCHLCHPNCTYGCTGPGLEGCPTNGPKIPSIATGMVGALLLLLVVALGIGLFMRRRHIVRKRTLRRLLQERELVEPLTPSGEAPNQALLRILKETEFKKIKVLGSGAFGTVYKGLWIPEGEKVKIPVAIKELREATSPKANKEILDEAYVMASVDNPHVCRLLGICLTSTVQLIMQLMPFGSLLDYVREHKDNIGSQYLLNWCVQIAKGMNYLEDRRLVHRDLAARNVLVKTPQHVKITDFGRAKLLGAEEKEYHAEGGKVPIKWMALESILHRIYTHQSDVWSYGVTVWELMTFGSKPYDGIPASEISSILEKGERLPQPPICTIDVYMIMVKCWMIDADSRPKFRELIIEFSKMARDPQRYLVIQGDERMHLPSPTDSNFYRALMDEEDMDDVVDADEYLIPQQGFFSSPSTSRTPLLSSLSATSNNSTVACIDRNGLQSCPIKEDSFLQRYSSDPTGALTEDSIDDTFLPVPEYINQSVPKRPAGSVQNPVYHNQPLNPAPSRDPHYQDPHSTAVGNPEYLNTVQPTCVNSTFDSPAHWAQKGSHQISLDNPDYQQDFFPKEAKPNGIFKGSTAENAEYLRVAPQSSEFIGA
T6 sequence (P00533 with tags, fused parts or gaps DEL746-750/T790M limits assumed): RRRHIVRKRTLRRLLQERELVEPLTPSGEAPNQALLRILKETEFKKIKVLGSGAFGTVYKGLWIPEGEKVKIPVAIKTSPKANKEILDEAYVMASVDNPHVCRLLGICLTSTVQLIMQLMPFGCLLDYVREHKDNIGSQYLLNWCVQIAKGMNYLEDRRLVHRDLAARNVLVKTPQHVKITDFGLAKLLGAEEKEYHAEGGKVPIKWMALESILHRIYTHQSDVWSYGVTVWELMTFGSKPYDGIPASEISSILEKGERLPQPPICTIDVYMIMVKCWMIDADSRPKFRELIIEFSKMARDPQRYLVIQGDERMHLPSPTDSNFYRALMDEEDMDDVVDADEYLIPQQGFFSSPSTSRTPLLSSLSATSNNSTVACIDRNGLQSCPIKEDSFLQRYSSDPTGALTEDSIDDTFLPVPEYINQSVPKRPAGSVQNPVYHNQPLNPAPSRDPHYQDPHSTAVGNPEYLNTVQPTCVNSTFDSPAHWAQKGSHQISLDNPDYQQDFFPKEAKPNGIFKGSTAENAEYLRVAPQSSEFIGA
T7 sequence (P00533 25-1210 T790M/L858R): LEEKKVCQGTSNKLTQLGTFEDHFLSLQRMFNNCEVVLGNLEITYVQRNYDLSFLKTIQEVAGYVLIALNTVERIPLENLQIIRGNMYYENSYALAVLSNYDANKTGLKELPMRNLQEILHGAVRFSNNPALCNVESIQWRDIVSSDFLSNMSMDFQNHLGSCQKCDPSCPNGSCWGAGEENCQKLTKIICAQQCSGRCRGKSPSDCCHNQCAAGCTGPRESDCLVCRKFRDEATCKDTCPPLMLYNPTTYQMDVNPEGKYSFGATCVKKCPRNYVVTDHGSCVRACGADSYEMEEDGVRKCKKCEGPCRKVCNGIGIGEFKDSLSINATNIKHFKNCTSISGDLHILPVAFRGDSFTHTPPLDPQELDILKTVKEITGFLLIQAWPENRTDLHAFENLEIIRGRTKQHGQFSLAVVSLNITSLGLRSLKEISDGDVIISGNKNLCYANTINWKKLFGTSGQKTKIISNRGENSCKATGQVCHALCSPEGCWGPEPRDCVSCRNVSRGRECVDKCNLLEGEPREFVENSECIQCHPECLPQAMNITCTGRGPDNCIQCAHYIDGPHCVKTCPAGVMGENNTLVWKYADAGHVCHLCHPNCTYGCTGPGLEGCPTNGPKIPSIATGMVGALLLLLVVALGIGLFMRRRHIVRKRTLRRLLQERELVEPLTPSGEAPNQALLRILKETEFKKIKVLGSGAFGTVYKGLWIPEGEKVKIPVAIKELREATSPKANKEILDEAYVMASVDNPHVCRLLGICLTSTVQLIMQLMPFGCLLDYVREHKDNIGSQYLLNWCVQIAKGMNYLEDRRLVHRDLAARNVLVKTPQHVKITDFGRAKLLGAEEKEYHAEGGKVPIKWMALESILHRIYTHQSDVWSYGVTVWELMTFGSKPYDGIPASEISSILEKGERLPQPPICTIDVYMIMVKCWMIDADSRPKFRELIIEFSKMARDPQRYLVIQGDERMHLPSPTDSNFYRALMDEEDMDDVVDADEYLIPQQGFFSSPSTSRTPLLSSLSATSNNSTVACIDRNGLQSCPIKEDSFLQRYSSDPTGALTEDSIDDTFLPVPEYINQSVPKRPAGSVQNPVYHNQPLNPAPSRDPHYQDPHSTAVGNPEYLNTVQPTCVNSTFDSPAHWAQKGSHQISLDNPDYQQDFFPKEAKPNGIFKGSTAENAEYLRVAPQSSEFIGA
T3 sequence (P00533 with tags, fused parts or gaps DEL746-750/C797S limits assumed): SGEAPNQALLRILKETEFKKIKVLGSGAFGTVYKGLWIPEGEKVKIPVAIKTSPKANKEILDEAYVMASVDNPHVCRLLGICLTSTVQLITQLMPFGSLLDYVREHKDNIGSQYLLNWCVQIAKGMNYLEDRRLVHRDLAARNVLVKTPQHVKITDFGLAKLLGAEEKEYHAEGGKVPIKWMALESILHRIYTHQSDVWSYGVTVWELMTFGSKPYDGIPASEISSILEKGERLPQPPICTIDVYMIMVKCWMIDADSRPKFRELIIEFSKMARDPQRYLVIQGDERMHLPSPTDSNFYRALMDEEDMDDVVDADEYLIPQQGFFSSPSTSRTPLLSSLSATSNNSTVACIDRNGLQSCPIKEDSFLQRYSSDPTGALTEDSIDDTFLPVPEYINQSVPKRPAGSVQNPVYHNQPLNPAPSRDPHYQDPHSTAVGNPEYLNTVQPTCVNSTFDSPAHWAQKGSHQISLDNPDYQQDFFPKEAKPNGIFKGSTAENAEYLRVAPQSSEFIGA
T5 sequence (P00533 with tags, fused parts or gaps DEL746-750 limits assumed): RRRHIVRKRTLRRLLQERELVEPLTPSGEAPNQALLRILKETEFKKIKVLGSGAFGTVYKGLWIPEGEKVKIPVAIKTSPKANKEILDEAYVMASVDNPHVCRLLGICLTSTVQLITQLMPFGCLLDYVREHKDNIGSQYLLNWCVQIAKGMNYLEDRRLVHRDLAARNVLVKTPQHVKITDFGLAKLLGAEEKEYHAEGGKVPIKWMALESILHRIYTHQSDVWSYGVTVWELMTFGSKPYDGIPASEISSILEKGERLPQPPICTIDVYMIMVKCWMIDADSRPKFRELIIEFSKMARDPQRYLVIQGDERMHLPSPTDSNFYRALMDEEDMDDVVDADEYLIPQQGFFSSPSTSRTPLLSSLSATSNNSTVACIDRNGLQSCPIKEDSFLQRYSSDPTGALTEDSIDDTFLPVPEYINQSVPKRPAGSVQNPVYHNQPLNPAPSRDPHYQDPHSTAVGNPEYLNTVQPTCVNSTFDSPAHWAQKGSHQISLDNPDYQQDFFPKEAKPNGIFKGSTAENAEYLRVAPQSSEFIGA
T1 sequence (P00533 with tags, fused parts or gaps DEL746-750/T790M/C797S limits assumed): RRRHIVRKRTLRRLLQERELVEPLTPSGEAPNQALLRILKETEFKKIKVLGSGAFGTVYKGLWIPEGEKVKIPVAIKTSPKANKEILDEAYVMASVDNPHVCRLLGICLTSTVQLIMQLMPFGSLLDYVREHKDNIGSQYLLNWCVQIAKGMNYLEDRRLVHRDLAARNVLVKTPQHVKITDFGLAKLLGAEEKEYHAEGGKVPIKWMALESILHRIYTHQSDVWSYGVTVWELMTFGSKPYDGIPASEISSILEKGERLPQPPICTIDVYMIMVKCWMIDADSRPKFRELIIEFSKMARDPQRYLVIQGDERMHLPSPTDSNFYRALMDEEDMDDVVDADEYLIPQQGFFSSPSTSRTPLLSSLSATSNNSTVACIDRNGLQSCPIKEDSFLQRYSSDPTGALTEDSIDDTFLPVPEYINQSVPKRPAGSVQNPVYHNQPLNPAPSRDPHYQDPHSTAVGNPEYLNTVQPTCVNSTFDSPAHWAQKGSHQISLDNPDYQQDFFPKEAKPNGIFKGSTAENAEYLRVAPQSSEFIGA

CN1C2CC1CN(c1ccc3nc4n(c3c1)C13CCC(CN(CCOc5c(cnn5C)-c5cc(cn(C)c5=O)C(=O)N4)C1)C3)C2 (single isomer, unassigned) [Example A98B]
IC50 [1]: 2.7 nM
IC50 (EGFR L858R): 3.3 nM
IC50 (EGFR (d746-750 C797S)): 1.3 nM
GI50 [2, 3]: 0.64 nM
GI50 [2, 4]: 1.5 nM
GI50 [2, 5]: 0.54 nM
GI50 [2, 6]: 2.8 nM
GI50 [2, 7]: 1.1 nM
GI50 [2, 8]: 3 nM
GI50 [2, 9]: 1.5 nM
GI50 (A-431; [10]): 280 nM
GI50 (PC-9): 7.6 nM
IC50 (EGFR (C797S L858R)): 4.1 nM
IC50 (EGFR Exon19Del): 1.8 nM
IC50 (EGFR Exon19Del/T790M): 2.9 nM
IC50 (EGFR L858R/T790M): 2.7 nM
IC50 (EGFR wild type): 21 nM
IC50 (EGFR[T790M/C797S/L858R]): 2.3 nM

CN(C)CCCN(C)c1ccc2nc3n(c2c1)C12CCC(CN(CCOc4c(cnn4C)-c4cc(cn(C)c4=O)C(=O)N3)C1)C2 (single isomer, unassigned) [Example A89A]
IC50 [1]: > 5000 nM
IC50 (EGFR L858R): 3600 nM
IC50 (EGFR (d746-750 C797S)): 573 nM
GI50 [2, 3]: 103 nM
GI50 [2, 4]: 178 nM
GI50 [2, 5]: 135 nM
GI50 [2, 6]: 165 nM
GI50 [2, 7]: 280 nM
GI50 [2, 8]: 367 nM
GI50 [2, 9]: 115 nM
GI50 (A-431; A-431 cells): 6390 nM
GI50 (PC-9): 791 nM
IC50 (EGFR (C797S L858R)): > 5000 nM
IC50 (EGFR Exon19Del): 250 nM
IC50 (EGFR Exon19Del/T790M): > 5000 nM
IC50 (EGFR L858R/T790M): > 5000 nM
IC50 (EGFR wild type): > 5000 nM
IC50 (EGFR[T790M/C797S/L858R]): > 5000 nM

CN(C)C1CN(c2ccc3nc4n(c3c2)C23CCC(CN(CCOc5c(cnn5C)-c5cc(cn(C)c5=O)C(=O)N4)C2)C3)CC1(F)F (single isomer, unassigned) [Example A99B]
IC50 [1]: 7.7 nM
IC50 (EGFR L858R): 94 nM
IC50 (EGFR (d746-750 C797S)): 4.6 nM
GI50 [2, 3]: 1.2 nM
GI50 [2, 4]: 15 nM
GI50 [2, 6]: 11 nM
GI50 [2, 7]: 4.6 nM
GI50 [2, 9]: 7.9 nM
GI50 (A-431; A-431 cells): 3640 nM
GI50 (PC-9): 46 nM
IC50 (EGFR (C797S L858R)): 59 nM
IC50 (EGFR Exon19Del): 3.5 nM
IC50 (EGFR Exon19Del/T790M): 8.4 nM
IC50 (EGFR L858R/T790M): 11 nM
IC50 (EGFR wild type): 3530 nM
IC50 (EGFR[T790M/C797S/L858R]): 10 nM

C[C@@H]1CCCOc2c(cnn2C)-c2cc(cn(C)c2=O)C(=O)Nc2nc3ccc(Br)cc3n2C1 [Example M3, (11R)-16-Bromo-5,11,26-trimethyl-7-oxa-4,5,13,20,22,26-hexaazapentacyclo[22.3.1.0^{2,6}.0^{13,21}.0^{14,19}]octacosa-1(28),2(6),3,14,16,18,20,24-octaene-23,27-dione]
IC50 [1]: 19 nM
IC50 (EGFR L858R): 2460 nM
IC50 (EGFR (d746-750 C797S)): 60 nM
GI50 [2, 11]: 89 nM
GI50 [2, 12]: 364 nM
GI50 [2, 13]: 257 nM
GI50 [2, 14]: 344 nM
GI50 [2, 15]: 159 nM
GI50 [2, 16]: 982 nM
GI50 [2, 17]: 300 nM
GI50 (A-431; [10]): 1950 nM
GI50 (PC-9; Homo sapiens, PC-9, 72 h): 252 nM
IC50 (EGFR (C797S L858R)): 1700 nM
IC50 (EGFR Exon19Del): 204 nM
IC50 (EGFR Exon19Del/T790M): 27 nM
IC50 (EGFR L858R/T790M): 2190 nM
IC50 (EGFR wild type): > 5000 nM
IC50 (EGFR[T790M/C797S/L858R]): 2470 nM

C[C@@H]1CCCOc2c(cnn2C)-c2cc(cn(C)c2=O)C(=O)Nc2nc3ccc(N4CCC(N(C)C)C(F)C4)cc3n2C1 (stereo partly shown) [Example A38]
IC50 [1]: 1.7 nM
IC50 (EGFR L858R): 9.7 nM
IC50 (EGFR (d746-750 C797S)): 0.81 nM
GI50 [2, 11]: 1.4 nM
GI50 [2, 12]: 4.8 nM
GI50 [2, 13]: 4.1 nM
GI50 [2, 14]: 4.2 nM
GI50 [2, 15]: 3.2 nM
GI50 [2, 16]: 13 nM
GI50 [2, 17]: 7.3 nM
GI50 (A-431; [10]): 315 nM
GI50 (PC-9; Homo sapiens, PC-9, 72 h): 6.2 nM
IC50 (EGFR (C797S L858R)): 2.9 nM
IC50 (EGFR Exon19Del): 1.3 nM
IC50 (EGFR Exon19Del/T790M): 1.6 nM
IC50 (EGFR L858R/T790M): 2.7 nM
IC50 (EGFR wild type): 159 nM
IC50 (EGFR[T790M/C797S/L858R]): 1.7 nM

CN1CCN(c2ccc3nc4n(c3c2)CC2(CCCOc3c(cnn3C)-c3cc(cn(C)c3=O)C(=O)N4)CC2)CC1 [Example A18, 5′,26′-dimethyl-16′-(4-methylpiperazin-1-yl)-7′-oxa-4′,5′,13′,20′,22′,26′-hexaazaspiro[cyclopropane-1,11′-pentacyclo[22.3.1.0^{2,6}.0^{13,21}.0^{14,19}]octacosan]-1′(28′),2′(6′),3′,14′,16′,18′,20′,24′-octaene-23′,27′-dione]
IC50 [1]: 44 nM
IC50 (EGFR L858R): 1370 nM
IC50 (EGFR (d746-750 C797S)): 91 nM
GI50 [2, 11]: 52.9 nM
GI50 [2, 12]: 246 nM
GI50 [2, 13]: 194 nM
GI50 [2, 14]: 169 nM
GI50 [2, 15]: 309 nM
GI50 [2, 16]: 249 nM
GI50 [2, 17]: 187 nM
GI50 (A-431; [10]): 377 nM
GI50 (PC-9; Homo sapiens, PC-9, 72 h): 565 nM
IC50 (EGFR (C797S L858R)): 929 nM
IC50 (EGFR Exon19Del): 54 nM
IC50 (EGFR Exon19Del/T790M): 41 nM
IC50 (EGFR L858R/T790M): 1140 nM
IC50 (EGFR wild type): > 5000 nM
IC50 (EGFR[T790M/C797S/L858R]): 1720 nM
